Test results reported in patent publication US12146004B2, “Polymyxin compounds and uses thereof” (priority 2014, dated 2024).
Converted amounts (≈) assume the structure as drawn. Like-named read-outs stand apart in the source and are kept apart here.

Assays:
Format in all cases: cell-based
Pseudomonas aeruginosa = system: Pseudomonas aeruginosa
Procedure: (§1) To evaluate the potency and spectrum of the compounds, susceptibility testing was performed against up to nine strains of each of the Gram negative pathogens, Escherichia coli, Pseudomonas aeruginosa, Klebsiella pneumoniae and Acinetobacter baumannii.
(§2) The values in Table 2 are MIC (μg/mL) against strains of E. coli, K. pneumoniae, P. aeruginosa and A. baumanii, including strains which show elevated MICs to Polymyxin.
(§3) The values in Table 2A are MIC (μg/mL).
(§4) The in vitro activity of compounds 26 and C7 (FADDI-02) against resistant bacterial strains was compared. The resistant strains included including Escherichia coli, Pseudomonas aeruginosa, Klebsiella pneumoniae and Acinetobacter baumannii strains. The data is provided in Table 2C, where the strains are identified. The values in Table 2 are MIC (μg/mL).

Escherichia coli = system: Escherichia coli
Procedure: as §1, §2, §3, §4

Klebsiella pneumoniae = system: Klebsiella pneumoniae
Procedure: as §1, §2, §3, §4

Acinetobacter baumannii = system: Acinetobacter baumannii
Procedure: as §1, §2, §3, §4

SMILES	MIC P. aeruginosa 068 (Pseudomonas aeruginosa; strain 068)	MIC P. aeruginosa 070 (Pseudomonas aeruginosa; strain 070)	MIC P. aeruginosa ATCC 27853 (Pseudomonas aeruginosa; strain ATCC 27853)	MIC P. aeruginosa CCUG 59347 (Pseudomonas aeruginosa; strain CCUG 59347)	MIC E. coli 058 (Escherichia coli; strain 058)	MIC E. coli 061 (Escherichia coli; strain 061)	MIC E. coli ATCC 25922 (Escherichia coli; strain ATCC 25922)	MIC K. pneumoniae 063 (Klebsiella pneumoniae; strain 063)	MIC K. pneumoniae 065 (Klebsiella pneumoniae; strain 065)	MIC K. pneumoniae ATCC 13882 (Klebsiella pneumoniae; strain ATCC 13882)	MIC A. baumanii 053 (Acinetobacter baumannii; strain 053)	MIC A. baumanii 056 (Acinetobacter baumannii; strain 056)	MIC A. baumanii ATCC BAA-747 (Acinetobacter baumannii; strain ATCC BAA-747)	MIC A. baumanii NCTC 13424 (Acinetobacter baumannii; strain NCTC 13424)	MIC P. aeruginosa CCUG 59347 (Pseudomonas aeruginosa)	MIC E. coli 058 (Escherichia coli)	MIC E. coli ATCC 25922 (Escherichia coli)	MIC K. pneumoniae ATCC 13882 (Klebsiella pneumoniae)	MIC A. baumanii ATCC BAA-747 (Acinetobacter baumannii)	MIC A. baumanii NCTC 13424 (Acinetobacter baumannii)	other results
CC(C)C[C@@H]1NC(=O)[C@@H](CC2CCCCC2)NC(=O)[C@H](CCN)NC(=O)[C@@H](NC(=O)[C@H](CN)NC(=O)[C@@H](NC(=O)CC(CN)C2CCCCC2)C(C)O)CCNC(=O)[C@H]([C@@H](C)O)NC(=O)[C@H](CCN)NC(=O)[C@H](CCN)NC1=O (single isomer, unassigned; isomer 1) [Example 42, 4-amino-3-cyclohexylbutanoyl L-Thr-L-Dap-polymyxin [D-cyclohexylalanine]-6 heptapeptide. Isomer 1]	2 µg/mL (≈ 1.78 µM)	4 µg/mL (≈ 3.56 µM)	0.5 µg/mL (≈ 0.445 µM)	0.5 µg/mL (≈ 0.445 µM)	4 µg/mL (≈ 3.56 µM)	8 µg/mL (≈ 7.13 µM)	0.5 µg/mL (≈ 0.445 µM)	32 µg/mL (≈ 28.5 µM)	2 µg/mL (≈ 1.78 µM)	0.25 µg/mL (≈ 0.223 µM)	>64 µg/mL	32 µg/mL (≈ 28.5 µM)	0.125 µg/mL (≈ 0.111 µM)	0.125 µg/mL (≈ 0.111 µM)							MIC E. coli NCTC 9001 (Escherichia coli; strain NCTC 9001): 0.06 µg/mL (≈ 0.0535 µM)
CC(C)C[C@@H]1NC(=O)[C@@H](CC2CCCCC2)NC(=O)[C@H](CCN)NC(=O)[C@@H](NC(=O)[C@H](CN)NC(=O)[C@@H](NC(=O)CC(CN)c2ccc(Cl)cc2)C(C)O)CCNC(=O)[C@H]([C@@H](C)O)NC(=O)[C@H](CCN)NC(=O)[C@H](CCN)NC1=O (single isomer, unassigned; isomer 1) [Example 50, 4-amino-3-(4-chlorophenyl) butanoyl L-Thr-L-Dap-polymyxin [D-cyclohexylalanine]-6 heptapeptide. Isomer 1]															0.5 µg/mL (≈ 0.434 µM)	2 µg/mL (≈ 1.74 µM)	0.5 µg/mL (≈ 0.434 µM)	0.25 µg/mL (≈ 0.217 µM)	0.125 µg/mL (≈ 0.109 µM)	0.25 µg/mL (≈ 0.217 µM)	MIC P. aeruginosa 068 (Pseudomonas aeruginosa): 1 µg/mL (≈ 0.869 µM); MIC P. aeruginosa 070 (Pseudomonas aeruginosa): 2 µg/mL (≈ 1.74 µM); MIC P. aeruginosa ATCC 27853 (Pseudomonas aeruginosa): 0.25 µg/mL (≈ 0.217 µM); MIC E. coli 061 (Escherichia coli): 16 µg/mL (≈ 13.9 µM); MIC K. pneumoniae 065 (Klebsiella pneumoniae): 1 µg/mL (≈ 0.869 µM); MIC A. baumanii 053 (Acinetobacter baumannii): 32 µg/mL (≈ 27.8 µM); MIC A. baumanii 056 (Acinetobacter baumannii): 16 µg/mL (≈ 13.9 µM)
CC(C)C[C@@H]1NC(=O)[C@@H](CC2CCCCC2)NC(=O)[C@H](CCN)NC(=O)[C@@H](NC(=O)[C@H](CCN)NC(=O)[C@@H](NC(=O)CC(CN)c2ccccc2)[C@@H](C)O)CCNC(=O)[C@H]([C@@H](C)O)NC(=O)[C@H](CCN)NC(=O)[C@H](CCN)NC1=O (single isomer, unassigned; isomer 1) [Example 56, 4-amino-3-phenylbutanoyl polymyxin [D-cyclohexylalanine]-6 nonapeptide isomer 1]			0.25 µg/mL (≈ 0.221 µM)	0.5 µg/mL (≈ 0.442 µM)	16 µg/mL (≈ 14.2 µM)		0.25 µg/mL (≈ 0.221 µM)		16 µg/mL (≈ 14.2 µM)	0.25 µg/mL (≈ 0.221 µM)			0.125 µg/mL (≈ 0.111 µM)	0.125 µg/mL (≈ 0.111 µM)							
CC(C)C[C@@H]1NC(=O)[C@@H](CC2CCCCC2)NC(=O)[C@H](CCN)NC(=O)[C@@H](NC(=O)[C@H](CN)NC(=O)[C@@H](NC(=O)CC(CN)Cc2ccccc2)[C@@H](C)O)CCNC(=O)[C@H]([C@@H](C)O)NC(=O)[C@H](CCN)NC(=O)[C@H](CCN)NC1=O (single isomer, unassigned; isomer 1) [Example 58, 4-amino-3-benzylbutanoyl L-Thr-L-Dap-polymyxin [D-cyclohexylalanine]-6 heptapeptide. Isomer 1]	2 µg/mL (≈ 1.77 µM)	8 µg/mL (≈ 7.08 µM)	0.25 µg/mL (≈ 0.221 µM)	0.25 µg/mL (≈ 0.221 µM)	4 µg/mL (≈ 3.54 µM)	16 µg/mL (≈ 14.2 µM)	0.25 µg/mL (≈ 0.221 µM)	64 µg/mL (≈ 56.6 µM)	4 µg/mL (≈ 3.54 µM)	0.25 µg/mL (≈ 0.221 µM)	64 µg/mL (≈ 56.6 µM)	64 µg/mL (≈ 56.6 µM)	0.03 µg/mL (≈ 0.0265 µM)	0.125 µg/mL (≈ 0.111 µM)							MIC E. coli NCTC 9001 (Escherichia coli; strain NCTC 9001): 0.125 µg/mL (≈ 0.111 µM)
CC(C)C[C@@H]1NC(=O)[C@@H](CC2CCCCC2)NC(=O)[C@H](CCN)NC(=O)[C@@H](NC(=O)[C@H](CN)NC(=O)[C@@H](NC(=O)CCC(N)c2ccccc2)[C@@H](C)O)CCNC(=O)[C@H]([C@@H](C)O)NC(=O)[C@H](CCN)NC(=O)[C@H](CCN)NC1=O (single isomer, unassigned; isomer 1) [Example 60, 4-amino-4-phenylbutanoyl L-Thr-L-Dap-polymyxin [D-cyclohexylalanine]-6 heptapeptide. Isomer 1]															1 µg/mL (≈ 0.896 µM)	16 µg/mL (≈ 14.3 µM)	0.5 µg/mL (≈ 0.448 µM)	0.5 µg/mL (≈ 0.448 µM)	0.5 µg/mL (≈ 0.448 µM)	1 µg/mL (≈ 0.896 µM)	
CC(C)C[C@@H]1NC(=O)[C@@H](CC2CCCCC2)NC(=O)[C@H](CCN)NC(=O)[C@@H](NC(=O)[C@H](CCN)NC(=O)[C@@H](NC(=O)CC(CN)Cc2ccccc2)[C@@H](C)O)CCNC(=O)[C@H]([C@@H](C)O)NC(=O)[C@H](CCN)NC(=O)[C@H](CCN)NC1=O (single isomer, unassigned; isomer 1) [Example 66, 4-amino-3-benzylbutanoyl polymyxin [D-cyclohexylalanine]-6 nonapeptide isomer 1]	8 µg/mL (≈ 6.99 µM)	32 µg/mL (≈ 28 µM)	0.25 µg/mL (≈ 0.218 µM)	0.5 µg/mL (≈ 0.437 µM)	8 µg/mL (≈ 6.99 µM)	32 µg/mL (≈ 28 µM)	0.125 µg/mL (≈ 0.109 µM)	64 µg/mL (≈ 55.9 µM)	4 µg/mL (≈ 3.5 µM)	0.125 µg/mL (≈ 0.109 µM)	>64 µg/mL	64 µg/mL (≈ 55.9 µM)	0.125 µg/mL (≈ 0.109 µM)	0.06 µg/mL (≈ 0.0524 µM)							
CC(C)C[C@@H]1NC(=O)[C@@H](CC2CCCCC2)NC(=O)[C@H](CCN)NC(=O)[C@@H](NC(=O)[C@H](CN)NC(=O)[C@@H](NC(=O)C(CCN)OCc2cccc(Cl)c2)[C@@H](C)O)CCNC(=O)[C@H]([C@@H](C)O)NC(=O)[C@H](CCN)NC(=O)[C@H](CCN)NC1=O (single isomer, unassigned; isomer 1) [Example 82, 4-amino-2-((3-chlorobenzyl)oxy) butanoyl L-Thr-L-Dap-polymyxin [D-cyclohexylalanine-6]heptapeptide. Isomer 1]															0.125 µg/mL (≈ 0.106 µM)	2 µg/mL (≈ 1.69 µM)	0.06 µg/mL (≈ 0.0508 µM)	0.125 µg/mL (≈ 0.106 µM)	0.125 µg/mL (≈ 0.106 µM)	0.03 µg/mL (≈ 0.0254 µM)	MIC P. aeruginosa 068 (Pseudomonas aeruginosa): 4 µg/mL (≈ 3.39 µM); MIC P. aeruginosa 070 (Pseudomonas aeruginosa): 8 µg/mL (≈ 6.77 µM); MIC P. aeruginosa ATCC 27853 (Pseudomonas aeruginosa): 0.125 µg/mL (≈ 0.106 µM); MIC E. coli 061 (Escherichia coli): 8 µg/mL (≈ 6.77 µM); MIC E. coli NCTC 9001 (Escherichia coli): 0.015 µg/mL (≈ 0.0127 µM); MIC K. pneumoniae 063 (Klebsiella pneumoniae): 32 µg/mL (≈ 27.1 µM); MIC K. pneumoniae 065 (Klebsiella pneumoniae): 2 µg/mL (≈ 1.69 µM); MIC A. baumanii 053 (Acinetobacter baumannii): 64 µg/mL (≈ 54.2 µM); MIC A. baumanii 056 (Acinetobacter baumannii): 16 µg/mL (≈ 13.5 µM)
